Laboratory results published in ChEMBL document CHEMBL3352021, “Naphthyridinone (NTD) integrase inhibitors 4. Investigating N1 acetamide substituent effects with C3 amide groups” (Bioorg Med Chem Lett, 2014).

Assays:
[1] = system: Human immunodeficiency virus; assay: Antiviral activity against pseudotyped HIV by luciferase reporter gene assay; format: functional, organism-based; settings: Human immunodeficiency virus 1
[2] = biological target: Human immunodeficiency virus type 1 integrase (Human immunodeficiency virus 1, UniProt Q7ZJM1); assay: Inhibition of recombinant HIV-1 integrase by strand-transfer assay
[3] = system: Human immunodeficiency virus; assay: Antiviral activity against pseudotyped HIV by luciferase reporter gene assay in presence of human serum albumin; format: functional, organism-based; settings: Human immunodeficiency virus 1
[4] = system: Human immunodeficiency virus; assay: Antiviral activity against HIV infected in PBMC assessed as protein-adjusted compound concentration; format: functional, organism-based; settings: Human immunodeficiency virus 1
[5] = Oral bioavailability in cynomolgus monkey at 5 mg/kg; format: ADME, organism-based, Macaca fascicularis; settings: in vivo
[6] = Oral bioavailability in dog at 5 mg/kg; format: ADME, organism-based, Canis lupus familiaris; settings: in vivo
[7] = system: Human immunodeficiency virus; assay: Ratio of IC50 for pseudotyped HIV by luciferase reporter gene assay in presence of human serum albumin to IC50 for pseudotyped HIV by luciferase reporter gene assay; format: functional
[8] = Half life in cynomolgus monkey at 1 mg/kg, iv as bolus dose; format: ADME, organism-based, Macaca fascicularis; parameters: dose 1 mg/kg, route intravenous; settings: in vivo
[9] = system: Human immunodeficiency virus; assay: Antiviral activity against HIV infected in PBMC; format: functional, organism-based; settings: Human immunodeficiency virus 1
[10] = Plasma clearance in dog at 1 mg/kg, iv
[11] = Inhibition of CYP450 (unknown origin) up to 33 uM; format: ADME; settings: human
[12] = Plasma clearance in cynomolgus monkey at 1 mg/kg, iv
[13] = Ratio of plasma concentration in rat at 5 mg/kg, po to IC90 for HIV infected in PBMC assessed as protein-adjusted compound concentration; format: ADME, organism-based; parameters: dose 5 mg/kg, route oral; settings: in vivo
[14] = Half life in dog at 1 mg/kg, iv as bolus dose; format: ADME, organism-based, Canis lupus familiaris; parameters: dose 1 mg/kg, route intravenous; settings: in vivo
[15] = Oral bioavailability in rat at 5 mg/kg; format: ADME, organism-based; settings: in vivo
[16] = Half life in rat at 1 mg/kg, iv as bolus dose; format: ADME, organism-based; parameters: dose 1 mg/kg, route intravenous; settings: in vivo
[17] = Plasma clearance in rat at 1 mg/kg, iv
[18] = Ratio of plasma concentration in cynomolgus monkey at 5 mg/kg, po to IC90 for HIV infected in PBMC assessed as protein-adjusted compound concentration; format: ADME, organism-based; parameters: dose 5 mg/kg, route oral; settings: in vivo
[19] = Ratio of plasma concentration in dog at 5 mg/kg, po to IC90 for HIV infected in PBMC assessed as protein-adjusted compound concentration; format: ADME, organism-based; parameters: dose 5 mg/kg, route oral; settings: in vivo
Cytochrome P450 1A2 = biological target: T1, Cytochrome P450 1A2 (Homo sapiens, UniProt P05177); assay: Inhibition of CYP1A2 (unknown origin) at 4.7 uM; format: ADME
T1 sequence (P05177 whole entry): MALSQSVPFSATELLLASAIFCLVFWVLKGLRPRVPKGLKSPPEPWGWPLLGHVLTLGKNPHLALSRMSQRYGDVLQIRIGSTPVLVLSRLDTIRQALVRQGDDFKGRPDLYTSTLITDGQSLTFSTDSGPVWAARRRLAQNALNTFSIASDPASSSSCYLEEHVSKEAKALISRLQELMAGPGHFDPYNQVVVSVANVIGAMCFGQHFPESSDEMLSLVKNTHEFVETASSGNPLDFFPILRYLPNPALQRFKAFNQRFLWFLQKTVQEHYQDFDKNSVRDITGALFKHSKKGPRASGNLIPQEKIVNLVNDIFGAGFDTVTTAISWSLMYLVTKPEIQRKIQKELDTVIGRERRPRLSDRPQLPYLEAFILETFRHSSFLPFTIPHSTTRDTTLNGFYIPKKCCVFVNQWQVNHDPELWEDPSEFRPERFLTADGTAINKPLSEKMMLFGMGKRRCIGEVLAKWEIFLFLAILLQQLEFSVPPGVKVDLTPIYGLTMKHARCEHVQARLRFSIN

Chain of Human immunodeficiency virus type 1 integrase (Q7ZJM1 whole entry): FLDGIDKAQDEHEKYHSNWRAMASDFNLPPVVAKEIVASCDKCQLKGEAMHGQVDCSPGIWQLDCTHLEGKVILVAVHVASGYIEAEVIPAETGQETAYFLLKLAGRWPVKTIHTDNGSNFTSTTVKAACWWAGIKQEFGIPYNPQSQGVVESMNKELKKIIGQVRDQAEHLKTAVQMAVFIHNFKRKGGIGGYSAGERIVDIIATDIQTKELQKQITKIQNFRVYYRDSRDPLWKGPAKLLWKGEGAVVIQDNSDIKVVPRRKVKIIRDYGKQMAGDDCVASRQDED

| Structure (SMILES) | IC50 [1] | IC50 [2] | IC50 [3] | also measured |
| --- | --- | --- | --- | --- |
| CNC(=O)c1c(O)c2ncc(Cc3ccc(F)cc3)cc2n(CC(=O)N(C)C)c1=O | 5.9 nM | 9.3 nM | 19 nM | IC50 [4]: 14 nM; IC90 [4]: 55 nM; bioavailability [5]: 60%; bioavailability [6]: 75%; Ratio IC50 [7]: 3.3; half-life [8]: 5 h; IC50 [9]: 4.2 nM; clearance [10]: 10.9 mL/min/kg; inhibition (INH) [11]: Not Active; clearance [12]: 6.3 mL/min/kg; Ratio [19]: 0.1; Ratio [13]: 2.4; half-life [14]: 1.3 h; bioavailability [15]: 69%; half-life [16]: 13.8 h; clearance [17]: 0.7 mL/min/kg; Ratio [18]: 0.7 |
| C[C@@H](CO)NC(=O)c1c(O)c2ncc(Cc3ccc(F)cc3)cc2n(CC(=O)N(C)C)c1=O | 17 nM | 7.1 nM | 24 nM | – |
| CN(C)C(=O)Cn1c(=O)c(C(=O)NCCN2CCOCC2)c(O)c2ncc(Cc3ccc(F)cc3)cc21 | 19 nM | 8.6 nM | 25 nM | – |
| CNC(=O)c1c(O)c2ncc(Cc3ccc(F)cc3)cc2n(CC(=O)NC(C)(C)C)c1=O | 4.8 nM | 6.9 nM | 16 nM | – |
| CCCNC(=O)Cn1c(=O)c(C(=O)NC)c(O)c2ncc(Cc3ccc(F)cc3)cc21 | 5.5 nM | 9.2 nM | 14 nM | – |
| CN(C)C(=O)Cn1c(=O)c(C(=O)NC2(CO)CCCC2)c(O)c2ncc(Cc3ccc(F)cc3)cc21 | 7.2 nM | 23 nM | 24 nM | – |
| CNC(=O)c1c(O)c2ncc(Cc3ccc(F)cc3)cc2n(CC(=O)NCC2CC2)c1=O | 5.9 nM | 8 nM | 33 nM | – |
| CNC(=O)c1c(O)c2ncc(Cc3ccc(F)cc3)cc2n(CC(=O)N2CCCC2)c1=O | 4.9 nM | 13 nM | 16 nM | – |
| COCCNC(=O)c1c(O)c2ncc(Cc3ccc(F)cc3)cc2n(CC(=O)NCCN(C)C)c1=O | 27 nM | 45 nM | 124 nM | – |
| C[C@H](O)CNC(=O)c1c(O)c2ncc(Cc3ccc(F)cc3)cc2n(CC(=O)N(C)C)c1=O | 7.1 nM | 4.1 nM | 15 nM | – |
| CNC(=O)c1c(O)c2ncc(Cc3ccc(F)cc3)cc2n(CC(=O)NCCN(C)C)c1=O | 42 nM | 22 nM | 83 nM | – |
| C[C@@H](O)CNC(=O)c1c(O)c2ncc(Cc3ccc(F)cc3)cc2n(CC(=O)N(C)C)c1=O | 11 nM | 9.2 nM | 70 nM | – |
| COCCNC(=O)c1c(O)c2ncc(Cc3ccc(F)cc3)cc2n(CC(N)=O)c1=O | 4.3 nM | 7.7 nM | 22 nM | – |
| COCCNC(=O)c1c(O)c2ncc(Cc3ccc(F)cc3)cc2n(CC(=O)N2CCN(C)CC2)c1=O | 5.3 nM | 28 nM | 13 nM | – |
| C[C@H](CO)NC(=O)c1c(O)c2ncc(Cc3ccc(F)cc3)cc2n(CC(=O)N(C)C)c1=O | 31 nM | 8.6 nM | 40 nM | – |
| CCN(CC)C(=O)Cn1c(=O)c(C(=O)NC)c(O)c2ncc(Cc3ccc(F)cc3)cc21 | 9.2 nM | 4.4 nM | 17 nM | – |
| COCCNC(=O)c1c(O)c2ncc(Cc3ccc(F)cc3)cc2n(CC(=O)N2CCCC2)c1=O | 3.8 nM | 42 nM | 11 nM | – |
| CN(C)C(=O)Cn1c(=O)c(C(=O)NC2CC2)c(O)c2ncc(Cc3ccc(F)cc3)cc21 | 9.3 nM | 3 nM | 193 nM | – |
| CN(C)C(=O)Cn1c(=O)c(C(=O)NCCO)c(O)c2ncc(Cc3ccc(F)cc3)cc21 | 17 nM | 5.7 nM | 35 nM | – |

The next lines start with results.

| IC50 [1] | IC50 [2] | IC50 [3] | Structure (SMILES) | also measured |
| --- | --- | --- | --- | --- |
| 3.2 nM | 7.8 nM | 12 nM | CNC(=O)c1c(O)c2ncc(Cc3ccc(F)cc3)cc2n(CC(=O)NC(C)C)c1=O | – |
| 3.1 nM | 4 nM | 9 nM | COCCNC(=O)c1c(O)c2ncc(Cc3ccc(F)cc3)cc2n(CC(=O)N(C)C)c1=O | IC50 [4]: 13 nM; IC90 [4]: 50 nM; bioavailability [5]: 31%; bioavailability [6]: 7%; Ratio IC50 [7]: 2.9; half-life [8]: 5.4 h; IC50 [9]: 4.3 nM; clearance [10]: 19.5 mL/min/kg; inhibition (INH) [11]: Not Active; clearance [12]: 9.2 mL/min/kg; Ratio [13]: 0.5; half-life [14]: 1.8 h; bioavailability [15]: 59%; half-life [16]: 12.5 h; clearance [17]: 3.6 mL/min/kg; Ratio [18]: 0.6 |
| 2.6 nM | 4.4 nM | 7.6 nM | CNC(=O)c1c(O)c2ncc(Cc3ccc(F)cc3)cc2n(CC(=O)NC2CC2)c1=O | – |
| 1.5 nM | 7.1 nM | 15 nM | CNC(=O)c1c(O)c2ncc(Cc3ccc(F)cc3)cc2n(CC(=O)NCC(F)(F)F)c1=O | – |
| 3.2 nM | 6.2 nM | 57 nM | COCCNC(=O)c1c(O)c2ncc(Cc3ccc(F)cc3)cc2n(CC(=O)NC(C)C)c1=O | – |
| 1.7 nM | 8.1 nM | – | Cn1c(=O)c(C(=O)NCCO)c(O)c2ncc(Cc3ccc(F)cc3)cc21 [GSK-364735] | – |
| 3 nM | 9 nM | 14 nM | CNC(=O)Cn1c(=O)c(C(=O)NCCOC)c(O)c2ncc(Cc3ccc(F)cc3)cc21 | IC50 [4]: 10 nM; IC90 [4]: 41 nM; bioavailability [5]: 19%; bioavailability [6]: 111%; Ratio IC50 [7]: 4.5; half-life [8]: 2.3 h; IC50 [9]: 2.3 nM; clearance [10]: 13.8 mL/min/kg; clearance [12]: 2 mL/min/kg; Ratio [19]: 0.1; Ratio [13]: 56; inhibition (INH) (Cytochrome P450 1A2): Active; half-life [14]: 1.2 h; bioavailability [15]: 51%; half-life [16]: 3.7 h; clearance [17]: 0.5 mL/min/kg; Ratio [18]: 0.8 |
| 2.2 nM | 7.6 nM | 56 nM | CNC(=O)c1c(O)c2ncc(Cc3ccc(F)cc3)cc2n(CC(N)=O)c1=O | – |
| 3.6 nM | 6.5 nM | 82 nM | CN(C)C(=O)Cn1c(=O)c(C(=O)NC(C)(C)CO)c(O)c2ncc(Cc3ccc(F)cc3)cc21 | – |
| 3.6 nM | 4.7 nM | 12 nM | COCCNC(=O)c1c(O)c2ncc(Cc3ccc(F)cc3)cc2n(CC(=O)N2CCCCC2)c1=O | – |
| 3.3 nM | 9.3 nM | 22 nM | CNC(=O)Cn1c(=O)c(C(=O)NC)c(O)c2ncc(Cc3ccc(F)cc3)cc21 | – |
| 3.3 nM | 8.5 nM | 39 nM | COCCNC(=O)c1c(O)c2ncc(Cc3ccc(F)cc3)cc2n(CC(=O)NC2CCC2)c1=O | – |
| 3.3 nM | 5.7 nM | 13 nM | CNC(=O)c1c(O)c2ncc(Cc3ccc(F)cc3)cc2n(CC(=O)NOC)c1=O | – |
| 3 nM | 7.3 nM | 18 nM | COCCNC(=O)c1c(O)c2ncc(Cc3ccc(F)cc3)cc2n(CC(=O)NC2CC2)c1=O | – |
| 2.4 nM | 11 nM | 20 nM | COCCNC(=O)c1c(O)c2ncc(Cc3ccc(F)cc3)cc2n(CC(=O)NCC(F)(F)F)c1=O | – |
| 3.5 nM | 7.6 nM | 6.7 nM | COCCNC(=O)c1c(O)c2ncc(Cc3ccc(F)cc3)cc2n(CC(=O)N2CCOCC2)c1=O | – |
| 2.9 nM | 8.2 nM | 11 nM | CCNC(=O)Cn1c(=O)c(C(=O)NC)c(O)c2ncc(Cc3ccc(F)cc3)cc21 | – |
| 3.7 nM | 6.8 nM | 91 nM | CNC(=O)c1c(O)c2ncc(Cc3ccc(F)cc3)cc2n(CC(=O)NCCOC)c1=O | – |
